Patent US11066378B2, “Caffeic acid derivatives for anti-angiogenesis” (Taipei Medical University, priority 2015, dated 2021)

test system: HUVECs; assay: Cell viability assay (MTT assay), growth inhibition of HUVECs; type: cell-based, human; details: Homo sapiens, HUVEC, 24 h, MTT assay, 24 h treatment, 5% FBS-stimulated HUVECs
Procedure: Human umbilical vein endothelial cells (HUVECs; #8000) were purchased from the ScienCell Research Laboratories (San Diego, Calif., USA). The cells were seeded on gelatin-coated culture dishes and grown in the commercial endothelial cell medium (#1001; ScienCell) containing 5% fetal bovine serum (FBS; #0025; ScienCell), 30 μg/mL endothelial cell growth supplements (ECGS; #1052; ScienCell), 100 units/mL penicillin G, and 100 μg/mL streptomycin sulfates (#0503; ScienCell). Cells at passage 3-6 were used for experiments. Mouse Lewis lung carcinoma cell line 1 (LLC1; #60050) was bought from the Food Industry Research and Development Institute (Hsinchu, Taiwan) and cultured in Gibco® Dulbecco's modified Eagle's medium (#12800-017; Invitrogen, Carlsbad, Calif., USA) supplemented with 10% FBS (HyClone, Logan, Utah, USA), 4 mM L-glutamine, 1.5 g/L sodium bicarbonate, 100 units/mL penicillin G, and 100 μg/mL streptomycin. All cells were incubated in a humidified 5% CO2 atmosphere at 37° C. and culture media was changed every 2˜3 days.
The experiments were performed according to our previous study with minor modifications (Pan et al., 2010). Briefly, the cells (2×10^4 cells/well) were seeded and grown under normal culture medium for 24 h. After another 24 h of starvation with 0.5% FBS, the cells were treated with several concentrations (1, 2, 4, 8, and 16 μM) of the tested compounds for 24 h and then incubated with 5 mg/mL of MTT (3-[4,5-dimethyl thiazol-2-yl]-2,5-diphenyl tetrazolium bromide) for 2 h. After that, the cells were washed with 1×PBS and then dimethyl sulfoxide (DMSO) was added to each well. Absorbance values at 570 nm were determined for each well using 650 nm as the reference wavelength. The absorbance of the control group (treated with 5% or 10% FBS alone) was defined as 100%.

SMILES	GI50
COc1cc([C@H]2Oc3c(OC)cc(/C=C/C=O)cc3[C@@H]2C)ccc1O [K20A]	24 µM
COC(=O)/C=C/c1cc(OC(C)=O)c2oc(-c3ccc(OC(C)=O)c(OC(C)=O)c3)c(C(=O)OC)c2c1 [K20B]	24 µM
COC(=O)/C=C/c1cc(OC)c2c(c1)[C@H](C(=O)OC)[C@@H](c1ccc(O)c(OC)c1)O2 [K20L]	32 µM
COC(=O)/C=C/c1ccc(O)c(O)c1 [Methyl caffeate, reference compound]	80 µM
